Data taken from patent publication US20240034761A1, “REGENERATION OF MAMMALIAN TISSUES USING SYNTHETIC IMMODULINS” (priority 2022, published 2024).
Marks after values point to notes of the source that are not given here. Peptide text beside a SMILES is read from it.

Key:
[1] = PIP-binding membrane assay (Membrane Lipid Strips); design: key: —: −−− no binding; +++ strong binding; conditions: 400 ng peptide
Method: N-terminally biotinylated versions of the peptides listed below were used in various assays listed in the examples. For the two types of phosphatidylinositon phosphate (PIP)-binding assays, imm1-imm6 peptides were used.
In the PIP-binding membrane assay, 400 ng of each peptide was bound to Membrane Lipid Strips (Catalog # P-6002, Echelon Biosciences, Salt Lake City, UT) and developed according to the manufacturer's instructions. Binding to PIPs was as follows (−−− no binding; +++ strong binding): […]

[2] = Plate assay: biotinylated peptide on streptavidin plates, FITC-labelled PIP2; type: binding; conditions: 400 ng peptide per well
Method: In the plate assay, biotinylated peptides imm3 and imm5 were bound to 96-well, streptavidin-coated plates (BioLegend corporaton, San Diego, CA) at 400 ng per well in PBS buffer at room temperature for 60 mins. Plates were washed in PBS and developed with FITC-labelled PIP2 (purchased from Cayman Chemical Co, Ann Arbor, MI). Fluorescence was counted in a laboratory fluorescence spectrophotometer. The results were as follows (EDTA background set to =100; **p<0.01 vs background control): […]

[3] = test system: THP1-Dual monocyte reporter cell line; test: THP1-Dual myeloid cell differentiation assay (PMA protocol); type: cell-based, human; conditions: PMA 24 h, then peptide 0.33 uM or 0.66 uM 24 h; for CD169+ (AU): relative to immX3AVD = 100
Method: Mammalian cell differentiation assays employed the THP1-Dual monocyte reporter cell line (Invivogen Inc, San Diego, CA) seeded at 2×10e5 cells per well in 96-well plates and cultured at 37 degrees C. in RPMI-1640 growth medium plus 10% fetal bovine serum and 1% penicillin/streptomycin. Cells were subsequently treated for 24 hours with 100 ng/ml Phorbol 12-myristate 13-acetate (PMA protocol; Cayman Chemical Company, Ann Arbor, MI). Peptide (0.33 uM or 0.66 uM, as indicated) was then added, and incubation continued for an additional 24 hours. Culture supernatants were assayed for CCL22. Plates with adherent cells were washed with PBS and assayed for immunoreactivity of surface markers such as CD169, Clec9a or Clec12a using fuorescent tag- or biotin-labeled anti-human antibodies purchased from Miltenyi Biotec (Auburn, CA) and the secondary detection reagent recommended by the manufacturer.

[4] = Plate binding of FITC-labelled heparin to immobilised biotinylated peptides; conditions: 400 ng peptide/well, 1 ug FITC-heparin, PBS; normalized to immX3 peptide binding = 100
Method: (§1) Effects of pH, PIP2 and size classes: Streptavidin-coated 96-well plates (G-Biosciences, St. Louis, MO) were pre-loaded with biotinylated peptides [see Example 1] at 400 ng/well, at room temperature for 60 minutes. The plate was washed with PBS buffer and then 1 ug FITC-labelled heparin or hyaluronic acid (FITC-HMW-HA) in 100 uL PBS buffer was added per well (all tests done in quadruplicate). Incubation proceeded for 90 minutes at room temperature, followed by two PBS washes. The plate was read in a standard laboratory fluorometer (488/525 nm exitation/[…]) and the counts normalized for immX3 peptide binding=100. Values statistically above background are shown in bold font. **p<0.05 versus immX3AVD.

[5] = Plate binding of FITC-labelled hyaluronic acid to immobilised biotinylated peptides; conditions: 400 ng peptide/well, 1 ug FITC-HMW-HA, PBS; normalized to immX3 peptide binding = 100
Method: as §1

[6] = test system: HFF-1 human fibroblast cell line; test: Collagen stimulating activity in HFF-1 dermal fibroblasts (Collagen-1 ELISA); type: cell-based; conditions: peptide 2 uM, 72 hour; control (buffer) set to 100
Method: Immodulin peptides have potential untility in the field of cosmetics. HFF-1 human fibroblast cell line was obtained from the American Type Culture Collection (ATCC). Cells were grown in a T-75 flask in DMEM Medium containing 10% fetal bovine serum and penicillin-streptomycin at 37° C. in a humidified, 5% CO2 incubator. Cells ([…], 2,000 cells/well) were plated in a 96-well plate and incubated overnight at 37° C. in a humidified, 5% CO2 incubator. Next day, […] of compounds were added (quadruplicate wells). After 72 hour incubation with the compound, supernatants were collected for Collagen-1 ELISA assay and cell viability was measured in a luminometer after the addition of […] CellTiterGlo reagent (Promega Inc, Madison, WI) as recommended by the manufacturer. Collagen stimulating activity of immodulin peptides in HFF-1 dermal fibroblasts: Peptides were added to cells at 2 uM. Collagen-1A1 (COL1) immunoreactivity was measured in the supernatants of cultured cells by ELISA using a rabbit monoclonal anti-COL1 primary antibody (Abcam, Cambridge, MA). Control (buffer) value of immunoreactivity was set to 100.

N=C(N)NCCC[C@H](NC(=O)CNC(=O)[C@H](CCCCN)NC(=O)[C@H](CO)NC(=O)[C@@H]1CCCN1C(=O)[C@H](CCCNC(=N)N)NC(=O)[C@H](CS)NC(=O)[C@H](CCC(N)=O)NC(=O)[C@H](CCCCN)NC(=O)[C@H](CCCCN)NC(=O)[C@H](CCCCN)NC(=O)[C@H](Cc1ccc(O)cc1)NC(=O)[C@H](Cc1ccccc1)NC(=O)CNC(=O)[C@H](CCCCN)NC(=O)[C@@H](N)CCCCN)C(=O)N[C@@H](CCCCN)C(=O)N[C@@H](CCCNC(=N)N)C(=O)NCC(=O)N[C@@H](Cc1ccccc1)C(=O)N[C@@H](CS)C(=O)N[C@@H](Cc1c[nH]c2ccccc12)C(=O)O [imm3] (H-KKGFYKKKQCRPSKGRKRGFCW-OH)
Binding to Phosphatidylinositol [1]: — | Binding to PtdIns(4)P [PIP1] [1]: — | Binding to PtdIns(4,5)P [PIP2] [1]: +++ | FITC-PIP2 fluorescence, Background Control ([2]; EDTA background): 1.0 ± 0.8 | FITC-PIP2 fluorescence, Ferric Iron ([2]; with ferric iron): 26.2 ± 5.7** | FITC-PIP2 fluorescence, Zinc ([2]; with zinc): 4.7 ± 1.3** | CD169+ (AU) [3]: 27.8 ± 3.0 AU | CCL22 ([3]; culture supernatant): 55.3 ± 16.1 pg/mL | Heparin binding (fluorescence counts) [4]: 104.2 ± 22.0 | Hyaluronate binding (fluorescence counts) [5]: 57.2 ± 5.7** | COL1 (Collagen-1A1 immunoreactivity in supernatant) [6]: 101

CC(C)C[C@H](NC(=O)[C@H](C)NC(=O)[C@@H]1CCCN1C(=O)[C@H](Cc1c[nH]cn1)NC(=O)[C@H](CS)NC(=O)[C@H](CCC(N)=O)NC(=O)[C@H](CCCCN)NC(=O)[C@@H]1CCCN1C(=O)[C@H](Cc1c[nH]cn1)NC(=O)[C@H](Cc1ccccc1)NC(=O)[C@H](CC(N)=O)NC(=O)CNC(=O)[C@H](CC(N)=O)NC(=O)[C@@H](N)CCCNC(=N)N)C(=O)N[C@@H](CC(=O)O)C(=O)NCC(=O)N[C@@H](CCC(N)=O)C(=O)N[C@@H](CCCNC(=N)N)C(=O)NCC(=O)N[C@@H](CCCCN)C(=O)N[C@@H](CS)C(=O)N[C@@H](Cc1c[nH]c2ccccc12)C(=O)O [imm4] (H-RNGNFHPKQCHPALDGQRGKCW-OH)
Binding to Phosphatidylinositol [1]: — | Binding to PtdIns(3,4,5)P [PIP3] [1]: — | Binding to PtdIns(4)P [PIP1] [1]: — | Binding to PtdIns(4,5)P [PIP2] [1]: — | CD169+ (AU) [3]: 3.8 ± 1.1 AU | Heparin binding (fluorescence counts) [4]: 6.8 ± 24.1 | Hyaluronate binding (fluorescence counts) [5]: 14.6 ± 22.6 | COL1 (Collagen-1A1 immunoreactivity in supernatant) [6]: 105
